Source: US9896435B2, “N-pyrrolidinyl,N′-pyrazolyl-urea, thiourea, guanidine and cyanoguanidine compounds as TrkA kinase inhibitors” (Array BioPharma Inc., priority 2012, dated 2018)

Experiments:
Test in all cases: KinaseProfiler off-target kinase profiling
Assay type in all cases: biochemical
Settings in all cases: 10 μM, ATP near Km
AURKA = AURKA (Homo sapiens (Human), UniProt O14965)
Protocol: (§1) Two representative compounds (Example 2, 14) of the invention were tested for off-target kinase activity at a concentration of 10 μM by Millipore, Inc. in their KinaseProfiler™ service against all the kinases available in their full kinase panel. These compounds were run in duplicate at a concentration of ATP near the Km for each individual kinase according to Millipore's specifications. The results are shown in Table B. Data are reported as percent of control (POC) and are the average of the two replicates.

CAMK1d = CAMK1d (Homo sapiens (Human), UniProt Q8IU85)
Protocol: as §1

CK1gamma1 = CK1gamma1 (Homo sapiens (Human), UniProt Q9HCP0)
CK1gamma1, sequence (Q9HCP0 whole entry): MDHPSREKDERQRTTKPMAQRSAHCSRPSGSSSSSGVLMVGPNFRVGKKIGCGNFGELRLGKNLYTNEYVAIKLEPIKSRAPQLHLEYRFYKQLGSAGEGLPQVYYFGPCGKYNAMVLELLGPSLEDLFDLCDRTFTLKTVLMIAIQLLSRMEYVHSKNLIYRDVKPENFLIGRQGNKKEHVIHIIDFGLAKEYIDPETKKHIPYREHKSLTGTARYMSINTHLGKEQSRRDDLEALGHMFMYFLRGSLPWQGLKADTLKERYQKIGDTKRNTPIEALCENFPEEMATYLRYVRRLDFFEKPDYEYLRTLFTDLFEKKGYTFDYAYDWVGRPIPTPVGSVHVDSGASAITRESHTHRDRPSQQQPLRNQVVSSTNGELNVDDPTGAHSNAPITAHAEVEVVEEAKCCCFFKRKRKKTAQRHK
Protocol: as §1

CK2alpha2 = CK2alpha2 (Homo sapiens (Human), UniProt P19784)
Protocol: as §1

DAPK3 = DAPK3 (Homo sapiens (Human), UniProt O43293)
Protocol: as §1

DCAMKL2 = DCAMKL2 (Homo sapiens (Human), UniProt Q8N568)
Protocol: as §1

EGFR = EGFR (Homo sapiens (Human), UniProt P00533)
Protocol: as §1

ERK1 = ERK1 (Homo sapiens (Human), UniProt P27361)
Protocol: as §1

ERK2 = ERK2 (Homo sapiens (Human), UniProt P28482)
Protocol: as §1

FGFR3 = FGFR3 (Homo sapiens (Human), UniProt P22607)
Protocol: as §1

FGFR4 = FGFR4 (Homo sapiens (Human), UniProt P22455)
Protocol: as §1

Fer = Fer (Homo sapiens (Human), UniProt P16591)
Fer, sequence (P16591 whole entry): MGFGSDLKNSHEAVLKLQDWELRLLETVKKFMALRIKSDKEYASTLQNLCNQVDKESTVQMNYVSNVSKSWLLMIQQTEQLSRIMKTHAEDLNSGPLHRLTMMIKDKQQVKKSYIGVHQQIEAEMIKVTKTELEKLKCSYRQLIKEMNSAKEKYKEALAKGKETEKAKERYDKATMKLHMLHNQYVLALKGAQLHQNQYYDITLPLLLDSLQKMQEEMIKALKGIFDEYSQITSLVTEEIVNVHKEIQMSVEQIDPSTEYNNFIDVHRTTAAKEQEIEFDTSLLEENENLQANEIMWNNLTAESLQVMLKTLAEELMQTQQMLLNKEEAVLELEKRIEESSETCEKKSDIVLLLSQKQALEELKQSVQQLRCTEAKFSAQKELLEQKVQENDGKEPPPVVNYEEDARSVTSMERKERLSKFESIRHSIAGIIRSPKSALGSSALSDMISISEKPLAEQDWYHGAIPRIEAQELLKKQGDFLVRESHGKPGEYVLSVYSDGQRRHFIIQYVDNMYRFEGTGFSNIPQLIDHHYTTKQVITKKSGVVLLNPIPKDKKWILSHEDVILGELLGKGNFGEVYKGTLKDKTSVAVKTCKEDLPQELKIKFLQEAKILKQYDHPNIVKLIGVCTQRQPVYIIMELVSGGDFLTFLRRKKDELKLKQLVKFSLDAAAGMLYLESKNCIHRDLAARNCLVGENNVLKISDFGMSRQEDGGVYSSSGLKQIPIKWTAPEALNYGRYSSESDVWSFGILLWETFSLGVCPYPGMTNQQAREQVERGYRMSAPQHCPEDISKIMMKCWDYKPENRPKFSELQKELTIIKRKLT
Protocol: as §1

GRK5 = GRK5 (Homo sapiens (Human), UniProt P34947)
GRK5, sequence (P34947 whole entry): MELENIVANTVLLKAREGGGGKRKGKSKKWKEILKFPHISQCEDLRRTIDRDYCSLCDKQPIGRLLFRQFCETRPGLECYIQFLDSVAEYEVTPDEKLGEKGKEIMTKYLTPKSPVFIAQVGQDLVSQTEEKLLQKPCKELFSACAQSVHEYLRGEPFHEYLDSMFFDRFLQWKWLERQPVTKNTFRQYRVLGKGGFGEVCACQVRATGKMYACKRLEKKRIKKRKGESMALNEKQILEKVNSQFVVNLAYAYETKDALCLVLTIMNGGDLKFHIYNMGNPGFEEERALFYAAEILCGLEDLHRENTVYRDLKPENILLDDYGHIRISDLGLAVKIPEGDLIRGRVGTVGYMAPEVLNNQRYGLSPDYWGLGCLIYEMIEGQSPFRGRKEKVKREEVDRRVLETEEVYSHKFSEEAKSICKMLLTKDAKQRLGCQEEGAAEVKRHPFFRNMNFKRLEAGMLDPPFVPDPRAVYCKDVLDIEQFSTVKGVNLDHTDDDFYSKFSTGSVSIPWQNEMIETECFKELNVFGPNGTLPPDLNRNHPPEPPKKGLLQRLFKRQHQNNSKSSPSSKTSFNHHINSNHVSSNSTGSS
Protocol: as §1

HIPK1 = HIPK1 (Homo sapiens (Human), UniProt Q86Z02)
Protocol: as §1

HIPK3 = HIPK3 (Homo sapiens (Human), UniProt Q9H422)
Protocol: as §1

IRAK1 = IRAK1 (Homo sapiens (Human), UniProt P51617)
Protocol: as §1

KDR = KDR (Homo sapiens (Human), UniProt P35968)
Protocol: as §1

LKB1 = LKB1 (Homo sapiens (Human), UniProt Q15831)
Protocol: as §1

Lck = Lck (Homo sapiens (Human), UniProt P06239)
Lck, sequence (P06239 whole entry): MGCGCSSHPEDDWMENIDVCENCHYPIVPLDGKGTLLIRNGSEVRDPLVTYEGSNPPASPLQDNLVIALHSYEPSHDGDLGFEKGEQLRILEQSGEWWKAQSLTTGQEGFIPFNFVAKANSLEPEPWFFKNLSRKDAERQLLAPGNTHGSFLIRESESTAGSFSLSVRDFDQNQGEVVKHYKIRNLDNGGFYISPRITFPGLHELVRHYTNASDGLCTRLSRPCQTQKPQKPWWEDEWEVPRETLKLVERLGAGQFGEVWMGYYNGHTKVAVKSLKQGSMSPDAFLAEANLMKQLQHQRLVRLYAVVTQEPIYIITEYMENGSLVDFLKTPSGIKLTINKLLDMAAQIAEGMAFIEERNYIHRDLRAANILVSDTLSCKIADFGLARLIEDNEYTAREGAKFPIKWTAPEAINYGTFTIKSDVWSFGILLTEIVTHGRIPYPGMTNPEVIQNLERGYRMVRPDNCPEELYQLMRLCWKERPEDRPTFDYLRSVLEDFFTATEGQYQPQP
Protocol: as §1

Lyn = Lyn (Homo sapiens (Human), UniProt P07948)
Protocol: as §1

MARK1 = MARK1 (Homo sapiens (Human), UniProt Q9P0L2)
Protocol: as §1

MKK4_m = MKK4_m (Mus musculus (Mouse), UniProt P47809)
Protocol: as §1

MST1 = MST1 (Homo sapiens (Human), UniProt Q13043)
MST1, sequence (Q13043 whole entry): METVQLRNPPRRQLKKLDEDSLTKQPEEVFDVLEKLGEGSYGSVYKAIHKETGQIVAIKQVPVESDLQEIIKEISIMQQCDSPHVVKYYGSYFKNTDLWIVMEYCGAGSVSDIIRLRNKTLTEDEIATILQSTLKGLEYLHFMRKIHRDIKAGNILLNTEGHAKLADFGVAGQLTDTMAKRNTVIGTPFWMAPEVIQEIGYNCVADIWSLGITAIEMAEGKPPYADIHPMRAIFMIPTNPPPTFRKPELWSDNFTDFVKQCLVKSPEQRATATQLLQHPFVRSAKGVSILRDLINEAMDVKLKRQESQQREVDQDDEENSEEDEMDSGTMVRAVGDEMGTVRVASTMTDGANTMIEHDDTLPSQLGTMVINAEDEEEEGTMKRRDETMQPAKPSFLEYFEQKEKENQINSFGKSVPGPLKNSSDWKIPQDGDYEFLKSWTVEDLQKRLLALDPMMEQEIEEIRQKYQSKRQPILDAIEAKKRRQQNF
Protocol: as §1

MuSK = MuSK (Homo sapiens (Human), UniProt O15146)
Protocol: as §1

PRK2 = PRK2 (Homo sapiens (Human), UniProt Q16513)
PRK2, sequence (Q16513 whole entry): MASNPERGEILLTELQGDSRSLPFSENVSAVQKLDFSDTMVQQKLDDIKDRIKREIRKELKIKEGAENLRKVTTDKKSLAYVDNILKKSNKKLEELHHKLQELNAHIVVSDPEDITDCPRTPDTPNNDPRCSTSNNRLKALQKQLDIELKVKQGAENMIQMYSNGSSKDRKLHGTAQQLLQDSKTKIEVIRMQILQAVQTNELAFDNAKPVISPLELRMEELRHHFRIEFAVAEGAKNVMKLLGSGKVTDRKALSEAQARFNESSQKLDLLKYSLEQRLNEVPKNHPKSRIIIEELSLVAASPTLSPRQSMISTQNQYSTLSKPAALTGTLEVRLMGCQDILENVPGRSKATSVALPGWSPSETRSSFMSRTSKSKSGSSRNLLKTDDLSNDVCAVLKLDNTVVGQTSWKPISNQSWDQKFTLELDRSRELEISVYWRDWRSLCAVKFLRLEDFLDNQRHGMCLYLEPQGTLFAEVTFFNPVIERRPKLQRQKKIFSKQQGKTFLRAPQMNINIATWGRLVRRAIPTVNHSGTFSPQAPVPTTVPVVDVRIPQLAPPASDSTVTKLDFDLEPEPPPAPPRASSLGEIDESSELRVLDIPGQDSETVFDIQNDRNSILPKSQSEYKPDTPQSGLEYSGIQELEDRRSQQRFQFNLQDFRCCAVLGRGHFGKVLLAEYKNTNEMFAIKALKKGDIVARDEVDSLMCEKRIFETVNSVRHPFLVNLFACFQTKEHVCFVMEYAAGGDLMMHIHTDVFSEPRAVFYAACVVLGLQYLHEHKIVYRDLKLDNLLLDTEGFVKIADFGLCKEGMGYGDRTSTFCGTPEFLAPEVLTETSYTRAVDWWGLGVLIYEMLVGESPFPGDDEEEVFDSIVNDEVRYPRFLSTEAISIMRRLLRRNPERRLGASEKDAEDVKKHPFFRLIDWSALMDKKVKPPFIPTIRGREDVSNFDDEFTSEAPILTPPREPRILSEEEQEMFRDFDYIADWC
Protocol: as §1

PRKG1alpha = PRKG1alpha (Homo sapiens (Human), UniProt Q13976)
PRKG1alpha, sequence (Q13976 whole entry): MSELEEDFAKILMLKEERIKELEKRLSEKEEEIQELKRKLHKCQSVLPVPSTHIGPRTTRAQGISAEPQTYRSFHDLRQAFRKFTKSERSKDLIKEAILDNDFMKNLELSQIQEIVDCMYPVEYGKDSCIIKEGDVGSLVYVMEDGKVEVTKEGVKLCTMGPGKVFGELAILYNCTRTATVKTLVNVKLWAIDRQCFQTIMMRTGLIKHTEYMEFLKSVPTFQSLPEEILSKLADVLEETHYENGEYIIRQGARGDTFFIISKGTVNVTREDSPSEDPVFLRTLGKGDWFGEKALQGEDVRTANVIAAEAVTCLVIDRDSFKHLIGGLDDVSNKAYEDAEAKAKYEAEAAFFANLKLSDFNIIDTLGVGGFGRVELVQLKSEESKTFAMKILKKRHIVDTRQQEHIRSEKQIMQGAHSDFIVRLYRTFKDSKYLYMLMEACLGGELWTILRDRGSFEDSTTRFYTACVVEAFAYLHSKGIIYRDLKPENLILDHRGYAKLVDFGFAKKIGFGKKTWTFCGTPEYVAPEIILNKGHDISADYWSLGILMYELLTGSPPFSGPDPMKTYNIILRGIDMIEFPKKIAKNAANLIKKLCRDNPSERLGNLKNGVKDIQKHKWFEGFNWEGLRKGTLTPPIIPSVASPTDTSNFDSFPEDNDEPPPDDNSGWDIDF
Protocol: as §1

PRKG1beta = PRKG1beta (Homo sapiens (Human), UniProt Q13976)
Protocol: as §1

Plk1 = Plk1 (Homo sapiens (Human), UniProt P53350)
Protocol: as §1

PrKX = PrKX (Homo sapiens (Human), UniProt P51817)
Protocol: as §1

ROCK-I = ROCK-I (Homo sapiens (Human), UniProt Q13464)
Protocol: as §1

Ron = Ron (Homo sapiens (Human), UniProt Q04912)
Protocol: as §1

Rsk3 = Rsk3 (Homo sapiens (Human), UniProt Q15349)
Protocol: as §1

SRPK2 = SRPK2 (Homo sapiens (Human), UniProt P78362)
Protocol: as §1

TAK1 = TAK1 (Homo sapiens (Human), UniProt O43318)
Protocol: as §1

TAO2 = TAO2 (Homo sapiens (Human), UniProt Q9UL54)
Protocol: as §1

Yes = Yes (Homo sapiens (Human), UniProt P07947)
Protocol: as §1

ZAP-70 = ZAP-70 (Homo sapiens (Human), UniProt P43403)
Protocol: as §1

eEF-2K = eEF-2K (Homo sapiens (Human), UniProt O00418)
Protocol: as §1

p38alpha = p38alpha (Homo sapiens (Human), UniProt Q16539)
p38alpha, sequence (Q16539 whole entry): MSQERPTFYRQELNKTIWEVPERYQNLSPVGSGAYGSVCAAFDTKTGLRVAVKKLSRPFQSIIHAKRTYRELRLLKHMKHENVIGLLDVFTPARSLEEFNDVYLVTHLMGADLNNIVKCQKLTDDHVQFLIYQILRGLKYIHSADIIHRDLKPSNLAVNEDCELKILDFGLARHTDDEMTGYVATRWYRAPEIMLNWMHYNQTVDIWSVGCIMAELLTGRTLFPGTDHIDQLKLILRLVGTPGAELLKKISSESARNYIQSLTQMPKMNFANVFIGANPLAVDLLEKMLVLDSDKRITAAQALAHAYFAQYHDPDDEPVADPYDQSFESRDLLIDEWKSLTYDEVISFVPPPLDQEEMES
Protocol: as §1

p38beta = p38beta (Homo sapiens (Human), UniProt Q15759)
Protocol: as §1

Row | Avg POC (AURKA) | Avg POC (CAMK1d) | Avg POC (CK1gamma1) | Avg POC (CK2alpha2) | Avg POC (DAPK3) | Avg POC (DCAMKL2) | Avg POC (EGFR) | Avg POC (ERK1) | Avg POC (ERK2) | Avg POC (FGFR3) | Avg POC (FGFR4) | Avg POC (Fer) | Avg POC (GRK5) | Avg POC (HIPK1) | Avg POC (HIPK3) | Avg POC (IRAK1) | Avg POC (KDR) | Avg POC (LKB1) | Avg POC (Lck) | Avg POC (Lyn) | SMILES | other results
1 | 116 POC | 100 POC | 92 POC | 119.5 POC | 107 POC | 105 POC | 105.5 POC | 103 POC | 106.5 POC | 111.5 POC | 105.5 POC | 105 POC | 103.5 POC | 96.5 POC | 99.5 POC | 112.5 POC | 116.5 POC | 89.5 POC | 113 POC | 112 POC | COCCN1C[C@@H](NC(=O)Nc2c(C)c(-c3ccnc(C)c3)nn2-c2ccccc2)[C@H](c2ccc(F)c(F)c2)C1 [Example 2, 1-((3S,4R)-4-(3,4-difluorophenyl)-1-(2-methoxyethyl)pyrrolidin-3-yl)-3-(4-methyl-3-(2-methylpyridin-4-yl)-1-phenyl-1H-pyrazol-5-yl)urea] | Avg POC (MARK1): 97.5 POC; Avg POC (MKK4_m): 115 POC; Avg POC (MST1): 94 POC; Avg POC (MuSK): 103.5 POC; Avg POC (PRK2): 105 POC; Avg POC (PRKG1alpha): 108 POC; Avg POC (PRKG1beta): 97.5 POC; Avg POC (Plk1): 100 POC; Avg POC (PrKX): 110.5 POC; Avg POC (ROCK-I): 98 POC; Avg POC (Ron): 122.5 POC; Avg POC (Rsk3): 98 POC; Avg POC (SRPK2): 96.5 POC; Avg POC (TAK1): 93 POC; Avg POC (TAO2): 97 POC; Avg POC (Yes): 104 POC; Avg POC (ZAP-70): 93 POC; Avg POC (eEF-2K): 98.5 POC; Avg POC (p38alpha): 112 POC; Avg POC (p38beta): 101.5 POC
2 | 106 POC | 103.5 POC | 80 POC | 120 POC | 105.5 POC | 114.5 POC | 96.5 POC | 78.5 POC | 92.5 POC | 133.5 POC | 110 POC | 100.5 POC | 91 POC | 97.5 POC | 89 POC | 108.5 POC | 99 POC | 103.5 POC | 112.5 POC | 105.5 POC | COCCN1C[C@@H](NC(=O)Nc2c(C)c(-c3cnc(C)nc3)nn2-c2ccccc2)[C@H](c2cc(F)cc(F)c2)C1 [Example 14, 1-((3S,4R)-4-(3,5-difluorophenyl)-1-(2-methoxyethyl)pyrrolidin-3-yl)-3-(4-methyl-3-(2-methylpyrimidin-5-yl)-1-phenyl-1H-pyrazol-5-yl)urea] | Avg POC (MARK1): 98 POC; Avg POC (MKK4_m): 116.5 POC; Avg POC (MST1): 97.5 POC; Avg POC (MuSK): 98.5 POC; Avg POC (PRK2): 106.5 POC; Avg POC (PRKG1alpha): 100.5 POC; Avg POC (PRKG1beta): 101.5 POC; Avg POC (Plk1): 113 POC; Avg POC (PrKX): 94 POC; Avg POC (ROCK-I): 109.5 POC; Avg POC (Ron): 104 POC; Avg POC (Rsk3): 96 POC; Avg POC (SRPK2): 102.5 POC; Avg POC (TAK1): 88 POC; Avg POC (TAO2): 102.5 POC; Avg POC (Yes): 55.5 POC; Avg POC (ZAP-70): 101 POC; Avg POC (eEF-2K): 103 POC; Avg POC (p38alpha): 101 POC; Avg POC (p38beta): 93 POC
